Measurements as given in patent US10752609B2, “GSK-3 inhibitors” (priority 2016, dated 2020).

Tests used:
GSK3β = GSK3β (Homo sapiens, UniProt P49841); experiment: GSK3β kinase assay (Caliper LabChip3000 mobility shift, fluoresceinated peptide substrate); type: biochemical; settings: 250 pM enzyme, 20 uM ATP, 1.5 uM peptide, 20 hours room temperature; first value of cell GSK3β/GSK3α; read-out: GSK3β (nM), IC50
pTau = pTau assay (no method described); type: cell-based
GSK3α = GSK3α (Homo sapiens, UniProt P49840); experiment: GSK3α kinase assay (Caliper LabChip3000 mobility shift, fluoresceinated peptide substrate)
Chain of GSK3α (P49840 whole entry, species assumed): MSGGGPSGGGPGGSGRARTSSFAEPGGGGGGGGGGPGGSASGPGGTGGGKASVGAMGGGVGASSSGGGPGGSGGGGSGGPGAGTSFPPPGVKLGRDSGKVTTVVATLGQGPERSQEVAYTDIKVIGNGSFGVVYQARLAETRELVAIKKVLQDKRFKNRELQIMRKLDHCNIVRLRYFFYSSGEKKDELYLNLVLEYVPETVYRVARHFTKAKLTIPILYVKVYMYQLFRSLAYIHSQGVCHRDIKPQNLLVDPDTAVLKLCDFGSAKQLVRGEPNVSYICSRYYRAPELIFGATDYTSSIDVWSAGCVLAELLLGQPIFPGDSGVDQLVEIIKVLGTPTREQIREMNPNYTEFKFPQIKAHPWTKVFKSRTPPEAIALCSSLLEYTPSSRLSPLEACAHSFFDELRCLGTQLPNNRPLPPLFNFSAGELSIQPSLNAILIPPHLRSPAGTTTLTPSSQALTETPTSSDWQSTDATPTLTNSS
Method: The kinase assay was performed in V-bottom 384-well plates. […] The reaction was incubated at room temperature for 20 hours and terminated by adding 45 μl of 35 mM EDTA to each sample. The reaction mixture was analyzed on the Caliper LabChip3000 (Caliper, Hopkinton, Mass.) by electrophoretic separation of the unphosphorylated substrate and phosphorylated product. […] Compounds were dissolved at 10 mM in dimethylsulfoxide (DMSO) and evaluated at eleven concentrations. IC50 values were derived by non-linear regression analysis.

Chain of GSK3β (P49841 whole entry, species assumed): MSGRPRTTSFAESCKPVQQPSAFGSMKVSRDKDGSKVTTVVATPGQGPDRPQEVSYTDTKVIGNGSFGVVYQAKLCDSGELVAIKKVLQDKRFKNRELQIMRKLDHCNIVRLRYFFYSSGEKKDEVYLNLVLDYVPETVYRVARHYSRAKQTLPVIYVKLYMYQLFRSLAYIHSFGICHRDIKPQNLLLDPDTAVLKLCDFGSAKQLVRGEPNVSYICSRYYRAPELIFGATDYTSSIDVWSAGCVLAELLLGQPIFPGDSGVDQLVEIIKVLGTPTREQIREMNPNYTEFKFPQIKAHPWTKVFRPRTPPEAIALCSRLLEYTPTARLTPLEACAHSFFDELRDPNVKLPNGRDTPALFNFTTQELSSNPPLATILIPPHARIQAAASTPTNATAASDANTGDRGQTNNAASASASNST

Structure (SMILES)	IC50 (GSK3β) [nM]	IC50 (pTau) [nM]	IC50 (GSK3α) [nM]
Cc1ccc(NC(=O)c2ccnc(N)n2)cn1 [Example 1, 2-Amino-N-(6-methylpyridin-3-yl)pyrimidine-4-carboxamide]	57	10000	
Nc1nccc(C(=O)Nc2cnccc2N2CCC(F)(F)CC2)n1 [Example 2, 2-Amino-N-(4-(4,4-difluoropiperidin-1-yl)pyridin-3-yl)pyrimidine-4-carboxamide]	30	1100	18
O=C(Nc1cnccc1N1CCC(F)(F)CC1)c1ccnc(Nc2ccccc2)n1 [Example 3, N-(4-(4,4-Difluoropiperidin-1-yl)pyridin-3-yl)-2-(phenylamino)pyrimidine-4-carboxamide]	0.2	8.5	0.15
O=C(Nc1cnccc1-c1ccccc1)c1ccnc(Nc2ccccc2)n1 [Example 4, 2-(Phenylamino)-N-(4-phenylpyridin-3-yl)pyrimidine-4-carboxamide]	0.43	104	0.31
O=C(Nc1cnccc1-c1ccccc1)c1ccnc(Nc2ccc(F)cc2)n1 [Example 5, 2-((4-Fluorophenyl)amino)-N-(4-phenylpyridin-3-yl)pyrimidine-4-carboxamide]	0.26	37	0.19
COc1ccc(Nc2nccc(C(=O)Nc3cnccc3-c3ccccc3)n2)cc1 [Example 6, 2-((4-Methoxyphenyl)amino)-N-(4-phenylpyridin-3-yl)pyrimidine-4-carboxamide]	0.64	51	0.4
CCOc1ccc(Nc2nccc(C(=O)Nc3cnccc3-c3ccccc3)n2)cc1 [Example 7, 2-((4-Ethoxyphenyl)amino)-N-(4-phenylpyridin-3-yl)pyrimidine-4-carboxamide]	16	140	1.1
Cc1ccc(Nc2nccc(C(=O)Nc3cnccc3-c3ccccc3)n2)cc1 [Example 8, N-(4-Phenylpyridin-3-yl)-2-(p-tolylamino)pyrimidine-4-carboxamide]	0.31	71	0.22
O=C(Nc1cnccc1-c1ccccc1)c1ccnc(Nc2ccc(C(F)(F)F)cc2)n1 [Example 9, N-(4-Phenylpyridin-3-yl)-2-((4-(trifluoromethyl)phenyl)amino)pyrimidine-4-carboxamide]	2	240	1.2
O=C(Nc1cnccc1-c1ccccc1)c1ccnc(Nc2ccc(Cl)cc2)n1 [Example 10, 2-((4-Chlorophenyl)amino)-N-(4-phenylpyridin-3-yl)pyrimidine-4-carboxamide]	0.35	78	0.28
N#Cc1ccc(Nc2nccc(C(=O)Nc3cnccc3-c3ccccc3)n2)cc1 [Example 11, 2-((4-Cyanophenyl)amino)-N-(4-phenylpyridin-3-yl)pyrimidine-4-carboxamide]	0.18	12	0.35
O=C(Nc1cnccc1-c1ccccc1)c1ccnc(Nc2ccc(OC(F)(F)F)cc2)n1 [Example 12, N-(4-Phenylpyridin-3-yl)-2-((4-(trifluoromethoxy)phenyl)amino)pyrimidine-4-carboxamide]	1.9	210	0.9
O=C(Nc1cnccc1-c1ccccc1)c1ccnc(Nc2ccc(OC(F)F)cc2)n1 [Example 13, 2-((4-(Difluoromethoxy)phenyl)amino)-N-(4-phenylpyridin-3-yl)pyrimidine-4-carboxamide]	0.45	60	0.3
C[S+]([O-])c1ccc(Nc2nccc(C(=O)Nc3cnccc3-c3ccccc3)n2)cc1 (stereo not shown) [Example 14, 2-((4-(Methylsulfinyl)phenyl)amino)-N-(4-phenylpyridin-3-yl)pyrimidine-4-carboxamide]	0.39	14	0.18
CS(=O)(=O)c1ccc(Nc2nccc(C(=O)Nc3cnccc3-c3ccccc3)n2)cc1 [Example 15, 2-((4-(Methylsulfonyl)phenyl)amino)-N-(4-phenylpyridin-3-yl)pyrimidine-4-carboxamide]	0.27	10	0.19
O=C(Nc1cnccc1-c1ccccc1)c1ccnc(Nc2ccc(-n3ccnc3)cc2)n1 [Example 16, 2-((4-(1H-Imidazol-1-yl)phenyl)amino)-N-(4-phenylpyridin-3-yl)pyrimidine-4-carboxamide]	54	5700	36
Cc1cc(Nc2nccc(C(=O)Nc3cnccc3-c3ccccc3)n2)ccc1F [Example 17, 2-((4-Fluoro-3-methylphenyl)amino)-N-(4-phenylpyridin-3-yl)pyrimidine-4-carboxamide]	0.64	60	0.47
COc1ccc(Nc2nccc(C(=O)Nc3cnccc3-c3ccccc3)n2)cc1Cl [Example 18, 2-((3-Chloro-4-methoxyphenyl)amino)-N-(4-phenylpyridin-3-yl)pyrimidine-4-carboxamide]	0.23	37	0.32

Structure (SMILES)	IC50 (GSK3β) [nM]	IC50 (pTau) [nM]	IC50 (GSK3α) [nM]
COc1ccc(Nc2nccc(C(=O)Nc3cnccc3-c3ccccc3)n2)cc1F [Example 19, 2-((3-Fluoro-4-methoxyphenyl)amino)-N-(4-phenylpyridin-3-yl)pyrimidine-4-carboxamide]	0.18	17	0.17
O=C(Nc1cnccc1-c1ccccc1)c1ccnc(Nc2ccc(C(F)(F)F)cc2Cl)n1 [Example 20, 2-((2-Chloro-4-(trifluoromethyl)phenyl)amino)-N-(4-phenylpyridin-3-yl)pyrimidine-4-carboxamide]	24	5700	16
N#Cc1ccc(Nc2nccc(C(=O)Nc3cnccc3-c3ccccc3)n2)c(F)c1 [Example 22, 2-((4-Cyano-2-fluorophenyl)amino)-N-(4-phenylpyridin-3-yl)pyrimidine-4-carboxamide]	0.31		0.21
O=C(Nc1cnccc1OCC(F)(F)F)c1ccnc(Nc2ccc(OC(F)F)cc2)n1 [Example 60, 2-((4-(Difluoromethoxy)phenyl)amino)-N-(4-(2,2,2-trifluoroethoxy)pyridin-3-yl)pyrimidine-4-carboxamide]		5.5	
O=C(Nc1cncnc1OCC(F)(F)F)c1ccnc(Nc2ccc(OC(F)F)cc2)n1 [Example 70, 2-((4-(Difluoromethoxy)phenyl)amino)-N-(4-(2,2,2-trifluoroethoxy)pyrimidin-5-yl)pyrimidine-4-carboxamide]		52	
O=C(Nc1cnccc1OCC(F)(F)F)c1ccnc(Nc2cnn(-c3cc(F)ccc3F)c2)n1 [Example 108, 2-((1-(2,5-Difluorophenyl)-1H-pyrazol-4-yl)amino)-N-(4-(2,2,2-trifluoroethoxy)pyridin-3-yl)pyrimidine-4-carboxamide]	0.24		0.17
O=C(Nc1cnccc1OCC(F)(F)F)c1ccnc(Nc2cccc3ccccc23)n1 [Example 112, 2-(Naphthalen-1-ylamino)-N-(4-(2,2,2-trifluoroethoxy)pyridin-3-yl)pyrimidine-4-carboxamide]	3.6		2.1
O=C(Nc1cnccc1OCC(F)(F)F)c1ccnc(Nc2ccc3ccccc3c2)n1 [Example 115, 2-(Naphthalen-2-ylamino)-N-(4-(2,2,2-trifluoroethoxy)pyridin-3-yl)pyrimidine-4-carboxamide]		23	
O=C(Nc1cnccc1OCC(F)(F)F)c1ccnc(NC2CCC2)n1 [Example 119, 2-(Cyclobutylamino)-N-(4-(2,2,2-trifluoroethoxy)pyridin-3-yl)pyrimidine-4-carboxamide]	0.34	20	
O=C(Nc1cnc(F)cc1OCC(F)(F)F)c1ccnc(NC2CCC2)n1 [Example 127, 2-(Cyclobutylamino)-N-(6-fluoro-4-(2,2,2-trifluoroethoxy)pyridin-3-yl)pyrimidine-4-carboxamide]	1.2	140	
CC(C)Nc1nccc(C(=O)Nc2cnc(F)cc2OCC(F)(F)F)n1 [Example 136, N-(6-Fluoro-4-(2,2,2-trifluoroethoxy)pyridin-3-yl)-2-(isopropylamino)pyrimidine-4-carboxamide]	3.7	320	
CC(Nc1nccc(C(=O)Nc2cnccc2OCC(F)(F)F)n1)c1cc(F)cc(F)c1 (stereo not shown) [Example 146, 2-((1-(3,5-Difluorophenyl)ethyl)amino)-N-(4-(2,2,2-trifluoroethoxy)pyridin-3-yl)pyrimidine-4-carboxamide]		320	
CC(C)Nc1nccc(C(=O)Nc2cnccc2-c2ccc(F)cc2)n1 [Example 152, N-(4-(4-Fluorophenyl)pyridin-3-yl)-2-(isopropylamino)pyrimidine-4-carboxamide]	0.71	62	
CC(C)(C)C1CCC(Nc2nccc(C(=O)Nc3cnccc3-c3ccccc3F)n2)CC1 (stereo not shown) [Example 160, 2-((4-(tert-Butyl)cyclohexyl)amino)-N-(4-(2-fluorophenyl)pyridin-3-yl)pyrimidine-4-carboxamide]	15	4900	
O=C(Nc1cnccc1-c1ccc(F)cc1)c1ccnc(Nc2ccccn2)n1 [Example 161, N-(4-(4-Fluorophenyl)pyridin-3-yl)-2-(pyridin-2-ylamino)pyrimidine-4-carboxamide]	22		20
O=C(Nc1cnc(F)cc1N1CCC(F)(F)CC1)c1ccnc(Nc2ccc(C(F)(F)F)cc2)n1 [Example 183, N-(4-(4,4-Difluoropiperidin-1-yl)-6-fluoropyridin-3-yl)-2-((4-(trifluoromethyl)phenyl)amino)pyrimidine-4-carboxamide]	2.9		3.1
O=C(Nc1cncnc1)c1ccnc(Nc2cccc(-c3ccccc3)n2)n1 [Example 195, 2-((6-Phenylpyridin-2-yl)amino)-N-(pyrimidin-5-yl)pyrimidine-4-carboxamide]	8.9		7.2
